In US20130217702A1 (Richter Gedeon Nyrt., priority 2010, published 2013):

How the values were obtained:
[1] = molecular target: T1, recombinant human B1 receptors (Homo sapiens, UniProt P46663); experiment: Functional assay: antagonist potency by cytosolic calcium measurement (plate reader fluorimeter) in CHO-B1 cells, agonist LysDABK; type: cell-based; conditions: CHO-B1 cells, inhibition of LysDABK (EC80)-evoked [Ca2+]i elevation; read-out: B1 func.
T1 construct: host or cells: CHO (CHO-B1)
T1 sequence (P46663 1-353): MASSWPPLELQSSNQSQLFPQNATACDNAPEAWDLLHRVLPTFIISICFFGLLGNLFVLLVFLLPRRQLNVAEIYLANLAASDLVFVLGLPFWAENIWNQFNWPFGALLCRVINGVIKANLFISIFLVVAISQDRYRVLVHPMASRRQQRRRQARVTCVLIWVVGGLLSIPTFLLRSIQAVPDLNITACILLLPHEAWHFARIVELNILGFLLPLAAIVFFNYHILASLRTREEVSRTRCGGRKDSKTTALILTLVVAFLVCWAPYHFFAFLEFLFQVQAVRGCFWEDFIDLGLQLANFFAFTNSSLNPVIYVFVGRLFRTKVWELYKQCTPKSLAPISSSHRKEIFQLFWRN
Method in brief: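 IC50 is the concentration giving half-maximal inhibition of the LysDABK (EC80) calcium response, fitted from at least three experiments. CHO cells stably expressing human B1 were dye-loaded, exposed to compound for 20-25 min, then read by fluo-4 fluorescence (ΔF/F) at 37 °C.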

[2] = molecular target: T2, human recombinant bradykinin B1 receptor (Homo sapiens, UniProt P46663); experiment: Human recombinant bradykinin B1 receptor competitive radioligand binding; conditions: hB1 expressed in CHO cells, [3H]-[Des-Arg10] Kallidin radioligand; read-out: B1 binding
T2 construct: host or cells: CHO cells, clone hB1-A5
T2 sequence (P46663 1-353): T1 sequence (P46663 1-353)
Method in brief: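 Competition radioligand binding on CHO-expressed hB1 membranes, using [3,4-prolyl-3,4-^3H(N)]-[Des-Arg^10] Kallidin as tracer, 15 min at 25° C. Excess Lys-des-Arg^9-Bradykinin (10 μM) set nonspecific binding. Sigmoidal fits of at least seven concentrations gave IC50, converted to Ki via Cheng-Prusoff; KD from Scatchard.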

| Structure (SMILES) | IC50 [1] | Ki [2] |
| --- | --- | --- |
| Cc1nc(-c2cc3cc(F)ccc3n2-c2ccc(CNC(=O)C3(NC(=O)c4cncc(C(F)(F)F)c4)CC3)c(F)c2)no1 [Example 132, N-(1-{2-Fluoro-4-[5-fluoro-2-(5-methyl-[1,2,4]oxadiazol-3-yl)-indol-1-yl]-benzylcarbamoyl}-cyclopropyl)-5-trifluoromethyl-nicotinamide] | < 20 nM | < 20 nM |
| Cc1nc(-c2c(Cl)c3ccccc3n2-c2ccc(CNC(=O)C3(NC(=O)Cc4ccsc4)CC3)cc2)no1 [Example 147, 1-(2-Thiophen-3-yl-acetylamino)-cyclopropanecarboxylic acid 4-[3-chloro-2-(5-methyl-[1,2,4]oxadiazol-3-yl)-indol-1-yl]-benzylamide] | 20 to 100 nM | 100 to 500 nM |
| COc1ccc2c(c1)cc(-c1nc(C)no1)n2-c1ccc(CNC(=O)C2(NC(=O)c3cccnc3F)CC2)cc1 [Example 116, 2-Fluoro-N-(1-{4-[5-methoxy-2-(3-methyl-[1,2,4]oxadiazol-5-yl)-indol-1-yl]-benzylcarbamoyl}-cyclopropyl)-nicotinamide] | 20 to 100 nM | 20 to 100 nM |
| Cc1nc(-c2c(Cl)c3ccccc3n2-c2ccc(CNC(=O)C3(NC(=O)c4cccc(F)c4)CC3)cc2)no1 [Example 178, N-(1-{4-[3-Chloro-2-(5-methyl-[1,2,4]oxadiazol-3-yl)-indol-1-yl]-benzylcarbamoyl}-cyclopropyl)-3-fluoro-benzamide] | < 20 nM | < 20 nM |
| COC(=O)c1c(Cl)c2ccccc2n1-c1ccc(CNC(=O)C2(NC(=O)c3cc(OC)no3)CC2)c(F)c1 [Example 55, 3-Chloro-1-{3-fluoro-4-[({1-[(3-methoxy-isoxazole-5-carbonyl)-amino]-cyclo-propanecarbonyl}-amino)-methyl]-phenyl}-1H-indole-2-carboxylic acid methyl ester] | < 20 nM | < 20 nM |
| Cc1nc(-c2c(Cl)c3ccccc3n2-c2ccc(CNC(=O)C3(NC(=O)c4ccsc4)CC3)cc2)no1 [Example 167, Thiophene-3-carboxylic acid (1-{4-[3-chloro-2-(5-methyl-[1,2,4]oxadiazol-3-yl)-indol-1-yl]-benzylcarbamoyl}-cyclopropyl)-amide] | 20 to 100 nM | 20 to 100 nM |
| COC(=O)c1c(Cl)c2c(F)cccc2n1-c1ccc(CNC(=O)C2(NC(=O)C(F)(F)F)CC2)cc1 [Example 69, 3-Chloro-4-fluoro-1-[4-({[1-(2,2,2-trifluoro-acetylamino)-cyclopropanecarbonyl]-amino}-methyl)-phenyl]-1H-indole-2-carboxylic acid methyl ester] | 20 to 100 nM | 20 to 100 nM |
| Cc1nnc(-c2c(Cl)c3ccccc3n2-c2ccc(CNC(=O)C3(NC(=O)C(F)(F)F)CC3)cc2)o1 [Example 6, 1-(2,2,2-Trifluoro-acetylamino)-cyclopropanecarboxylic acid 4-[3-chloro-2-(5-methyl-[1,3,4]oxadiazol-2-yl)-indol-1-yl]-benzylamide] | 20 to 100 nM | 20 to 100 nM |
| Cc1nc(-c2c(Cl)c3ccccc3n2-c2ccc(CNC(=O)C3(NC(=O)c4ccno4)CC3)cc2)no1 [Example 134, Isoxazole-5-carboxylic acid (1-{4-[3-chloro-2-(5-methyl-[1,2,4]oxadiazol-3-yl)-indol-1-yl]-benzylcarbamoyl}-cyclopropyl)-amide] | < 20 nM | < 20 nM |
| Cc1nc(-c2c(Cl)c3ccccc3n2-c2ccc(CNC(=O)C3(NC(=O)C=Cc4ccoc4)CC3)cc2)no1 [Example 169, 1-(3-Furan-3-yl-acryloylamino)-cyclopropanecarboxylic acid 4-[3-chloro-2-(5-methyl-[1,2,4]oxadiazol-3-yl)-indol-1-yl]-benzylamide] | < 20 nM | < 20 nM |
| Cc1nc(-c2c(Cl)c3ccccc3n2-c2ccc(CNC(=O)C3(NC(=O)c4cc(C)n(C)n4)CC3)cc2)no1 [Example 148, 1,5-Dimethyl-1H-pyrazole-3-carboxylic acid (1-{4-[3-chloro-2-(5-methyl-[1,2,4]oxadiazol-3-yl)-indol-1-yl]-benzylcarbamoyl}-cyclopropyl)-amide] | 20 to 100 nM | < 20 nM |
| Cc1nc(-c2c(Cl)c3ccccc3n2-c2ccc(CNC(=O)C3(NC(=O)c4cc(C(F)(F)F)ccc4F)CC3)cc2)no1 [Example 96, N-(1-{4-[3-Chloro-2-(5-methyl-[1,2,4]oxadiazol-3-yl)-indol-1-yl]-benzylcarbamoyl}-cyclopropyl)-2-fluoro-5-trifluoromethyl-benzamide] | < 20 nM | < 20 nM |
| Cn1nnc(-c2c(Cl)c3ccccc3n2-c2ccc(CNC(=O)C3(NC(=O)c4cc(C5CC5)on4)CC3)cc2)n1 [Example 24, 5-Cyclopropyl-isoxazole-3-carboxylic acid (1-{4-[3-chloro-2-(2-methyl-2H-tetrazol-5-yl)-indol-1-yl]-benzylcarbamoyl}-cyclopropyl)-amide] | < 20 nM | < 20 nM |
| COc1ccc2c(c1)cc(-c1nnc(C)o1)n2-c1ccc(CNC(=O)C2(NC(=O)c3cc(OC)no3)CC2)cc1 [Example 126, 3-Methoxy-isoxazole-5-carboxylic acid (1-{4-[5-methoxy-2-(5-methyl-[1,3,4]oxadiazol-2-yl)-indol-1-yl]-benzylcarbamoyl}-cyclopropyl)-amide] | 20 to 100 nM | < 20 nM |
| Cc1cnc(C(=O)NC2(C(=O)NCc3ccc(-n4c(-c5noc(C)n5)c(Cl)c5cc(F)ccc54)cc3)CC2)cn1 [Example 87, 5-Methyl-pyrazine-2-carboxylic acid (1-{4-[3-chloro-5-fluoro-2-(5-methyl-[1,2,4]oxadiazol-3-yl)-indol-1-yl]-benzylcarbamoyl}-cyclopropyl)-amide] | < 20 nM | < 20 nM |
| Cc1nc(-c2cc3cc(F)ccc3n2-c2ccc(CNC(=O)C3(NC(=O)c4cncc(C(F)(F)F)c4)CC3)cc2)no1 [Example 46, N-(1-{4-[5-Fluoro-2-(5-methyl-[1,2,4]oxadiazol-3-yl)-indol-1-yl]-benzylcarbamoyl}-cyclopropyl)-5-trifluoromethyl-nicotinamide] | < 20 nM | < 20 nM |
| COc1cc(C(=O)NC2(C(=O)NCc3ccc(-n4c(C(N)=O)c(Cl)c5ccccc54)cc3)CC2)on1 [Example 188, 3-Chloro-1-{4-[({1-[(3-methoxy-isoxazole-5-carbonyl)-amino]-cyclopropane-carbonyl}-amino)-methyl]-phenyl}-1H-indole-2-carboxylic acid amide] | < 20 nM | 20 to 100 nM |
| Cc1cc(C(=O)NC2(C(=O)NCc3ccc(-n4c(-c5nnn(C)n5)c(Cl)c5ccccc54)cc3)CC2)no1 [Example 26, 5-Methyl-isoxazole-3-carboxylic acid (1-{4-[3-chloro-2-(2-methyl-2H-tetrazol-5-yl)-indol-1-yl]-benzylcarbamoyl}-cyclopropyl)-amide] | < 20 nM | < 20 nM |
| COc1cc(C(=O)NC2(C(=O)NCc3ccc(-n4c(-c5noc(C)n5)cc5cc(F)ccc54)cn3)CC2)on1 [Example 61, 3-Methoxy-isoxazole-5-carboxylic acid [1-({5-[5-fluoro-2-(5-methyl-[1,2,4]oxadiazol-3-yl)-indol-1-yl]-pyridin-2-ylmethyl}-carbamoyl)-cyclopropyl]-amide] | < 20 nM | < 20 nM |
| Cc1nc(-c2c(Cl)c3ccccc3n2-c2ccc(CNC(=O)C3(NC(=O)CC(F)(F)F)CC3)c(F)c2)no1 [Example 108, 1-(3,3,3-Trifluoro-propionylamino)-cyclopropanecarboxylic acid 4-[3-chloro-2-(5-methyl-[1,2,4]oxadiazol-3-yl)-indol-1-yl]-2-fluoro-benzylamide] | < 20 nM | < 20 nM |
| Cc1nc(-c2c(Cl)c3cc(F)ccc3n2-c2ccc(CNC(=O)C3(NC(=O)C(F)(F)F)CC3)cc2)no1 [Example 189, 1-(2,2,2-Trifluoro-acetylamino)-cyclopropanecarboxylic acid 4-[3-chloro-5-fluoro-2-(5-methyl-[1,2,4]oxadiazol-3-yl)-indol-1-yl]-benzylamide] | < 20 nM | < 20 nM |
| COc1cc(C(=O)NC2(C(=O)NCc3ccc(-n4c(-c5noc(C)n5)c(Cl)c5cc(Cl)ccc54)cc3)CC2)on1 [Example 66, 3-Methoxy-isoxazole-5-carboxylic acid (1-{4-[3,5-dichloro-2-(5-methyl-[1,2,4]oxadiazol-3-yl)-indol-1-yl]-benzylcarbamoyl}-cyclopropyl)-amide] | < 20 nM | < 20 nM |
| Cn1nnc(-c2c(Cl)c3ccccc3n2-c2ccc(CNC(=O)C3(NC(=O)c4cccc(F)c4)CC3)cc2)n1 [Example 31, N-(1-{4-[3-chloro-2-(2-methyl-2H-tetrazol-5-yl)-indol-1-yl]-benzylcarbamoyl}-cyclopropyl)-3-fluoro-benzamide] | < 20 nM | < 20 nM |
